In PubChem BioAssay (NCI) one finds TGI and GI50 data, which are given here for nine compounds.

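Step 1: Grow cells in 96-well plates. Step 2: Expose to compound for 48 hours at 5 concentrations. Step 3: Interpolate endpoints linearly; if unreached, use highest concentration. GI50: concentration for 50% inhibition of growth. TGI: concentration producing complete growth inhibition.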 Some results are limits rather than exact numbers.

Among the test systems are OVCAR-5 ovarian; OVCAR-3 ovarian; NCI-H522 lung; HCT-15 colon; OVCAR-4 ovarian; A498 renal; TK-10 renal; ACHN renal; RPMI-8226 leukemia; NCI-H226 lung.
Assay in all cases: DTP human tumour cell line panel, 48 h

As to `C/C(CC(O)(C(F)(F)F)C(F)(F)F)=N\N`, the TGI in the test on OVCAR-5 ovarian, in the test with OVCAR-3 ovarian, in the test on NCI-H522 lung, in the test on HCT-15 colon, with OVCAR-4 ovarian and in the test with A498 renal was > 10 µM throughout. Further, the total growth inhibition concentration (TGI) in the test on TK-10 renal, with ACHN renal, with RPMI-8226 leukemia and in the test with NCI-H226 lung was > 10 µM in each case.

For `CCN(CC)CCn1ncc2ccc3c(c(=O)c4cccnc4n3CCN(CC)CC)c21`, the TGI with OVCAR-5 ovarian was > 7.07 µM; with OVCAR-3 ovarian, 4.12 µM; with NCI-H522 lung it was 2.35 µM; in the test on HCT-15 colon, 6 µM; in the test with OVCAR-4 ovarian, 2.87 µM; with A498 renal, 2.24 µM. The TGI with TK-10 renal was > 10 µM; with ACHN renal it was > 10 µM; with RPMI-8226 leukemia it was 4.21 µM; in the test with NCI-H226 lung it was 5.44 µM.

Regarding `CC/C(=N\Nc1nc2ccccc2n1C)c1ccccn1`, the concentration for 50% growth inhibition (GI50) in the test with OVCAR-5 ovarian was 0.156 µM; in the test with OVCAR-3 ovarian, < 0.01 µM; in the test on NCI-H522 lung, 0.0392 µM; in the test with HCT-15 colon, 0.0141 µM; in the test on OVCAR-4 ovarian it was < 0.0185 µM; in the test on A498 renal, 0.153 µM. Further, the GI50 with TK-10 renal is 0.5 µM; in the test with ACHN renal it was < 0.016 µM; in the test with RPMI-8226 leukemia, 0.033 µM; in the test on NCI-H226 lung it was 0.117 µM. For the same compound, the TGI was found to be 15.6 µM with OVCAR-5 ovarian; 10.9 µM in the test with OVCAR-3 ovarian; 2.33 µM in the test on NCI-H522 lung; 12.9 µM with HCT-15 colon; 4.68 µM in the test with OVCAR-4 ovarian; 0.837 µM with A498 renal. The TGI with TK-10 renal turned out to be 12.3 µM; in the test on ACHN renal, 6.28 µM; in the test with RPMI-8226 leukemia, 6.29 µM; in the test on NCI-H226 lung, 1.05 µM.

In the case of `CCN1CCC[C@H]1c1cc(O)c2c(c1OC)C[C@H]1C[C@H]3[C@H](N)C(=O)C(C(N)=O)=C(O)[C@@]3(O)C(=O)C1=C2O`, the GI50 in the test on OVCAR-5 ovarian was 0.187 µM; in the test on OVCAR-3 ovarian, 0.13 µM; in the test on NCI-H522 lung it was 0.0562 µM; in the test on HCT-15 colon, 0.0547 µM; in the test with OVCAR-4 ovarian, 0.0675 µM; in the test with A498 renal, 0.0315 µM. Also, the GI50 in the test on TK-10 renal is 0.0626 µM; with ACHN renal, 0.0517 µM; in the test on RPMI-8226 leukemia, 0.041 µM; in the test with NCI-H226 lung it was 0.216 µM. Further, the TGI came out at 4.12 µM with OVCAR-5 ovarian; 3.17 µM in the test on OVCAR-3 ovarian; 0.799 µM in the test with NCI-H522 lung; 5.17 µM in the test with HCT-15 colon; 2.73 µM in the test with OVCAR-4 ovarian; 0.2 µM in the test with A498 renal. Moreover, the concentration for total growth inhibition (TGI) with TK-10 renal was found to be 2.42 µM; with ACHN renal, 0.802 µM; in the test on RPMI-8226 leukemia, 0.454 µM; in the test with NCI-H226 lung it was 3.96 µM.

Take `Cc1cccc(CN(C)c2ccc(CO)c(Cl)c2)c1`: the GI50 is 0.881 µM in the test with OVCAR-5 ovarian; 4.2 µM in the test on OVCAR-3 ovarian; 17.6 µM with NCI-H522 lung; 19.8 µM in the test on HCT-15 colon; 2.61 µM with OVCAR-4 ovarian; 0.0433 µM in the test on A498 renal. Moreover, the GI50 was 0.267 µM in the test on TK-10 renal, 32.7 µM in the test on ACHN renal, 14.4 µM with RPMI-8226 leukemia and 0.123 µM with NCI-H226 lung. In addition, the TGI was 4.87 µM in the test on OVCAR-5 ovarian; 17 µM in the test with OVCAR-3 ovarian; 57.8 µM in the test with NCI-H522 lung; > 100 µM with HCT-15 colon; 25.3 µM in the test with OVCAR-4 ovarian; 0.184 µM in the test on A498 renal. Further, the TGI with TK-10 renal was 1.56 µM; in the test on ACHN renal, > 100 µM; in the test with RPMI-8226 leukemia, > 69.3 µM; with NCI-H226 lung, 0.279 µM.

With `COc1c(OC(C)=O)cc2c(OC(C)=O)c1CC(C)CC(OC)C(O)C(C)/C=C(\C)C(OC(N)=O)C(OC)/C=C\C=C(/C)C(=O)N2` (stereo not given), the TGI was > 100 µM in the test on OVCAR-5 ovarian; > 100 µM in the test with OVCAR-3 ovarian; > 41.5 µM in the test with NCI-H522 lung; > 100 µM in the test with HCT-15 colon; > 100 µM in the test with OVCAR-4 ovarian; > 100 µM with A498 renal. Further, the total growth inhibition concentration (TGI) in the test on TK-10 renal is > 100 µM; in the test with ACHN renal, > 100 µM; with RPMI-8226 leukemia, > 80.9 µM; with NCI-H226 lung it was > 100 µM.

With `Nc1ccc2c(c1)C(=O)c1ccc(F)cc1-2`, the concentration for total growth inhibition (TGI) in the test on OVCAR-5 ovarian, in the test with OVCAR-3 ovarian, in the test with NCI-H522 lung, in the test with HCT-15 colon, with OVCAR-4 ovarian and in the test with A498 renal was > 100 µM in each case. Moreover, the TGI in the test on TK-10 renal, in the test with ACHN renal, with RPMI-8226 leukemia and in the test on NCI-H226 lung was > 100 µM each time.

In the case of `O=C1NC(=NCc2cccs2)SC1Cc1ccc2ncccc2c1` (stereo not given), the GI50 in the test with OVCAR-5 ovarian was > 25 µM; in the test on OVCAR-3 ovarian it was 13 µM; in the test on NCI-H522 lung, 16.1 µM; in the test with HCT-15 colon, 11.4 µM; in the test with OVCAR-4 ovarian it was > 25 µM; in the test with A498 renal it was 13.1 µM. In addition, the GI50 in the test with TK-10 renal is > 25 µM; in the test with ACHN renal it was 24.7 µM; with RPMI-8226 leukemia, 16.9 µM; with NCI-H226 lung it was > 25 µM. Also, the TGI in the test on OVCAR-5 ovarian, in the test with OVCAR-3 ovarian, in the test with NCI-H522 lung, in the test with HCT-15 colon, in the test with OVCAR-4 ovarian and in the test on A498 renal was > 25 µM each time. In addition, the TGI with TK-10 renal, in the test with ACHN renal, in the test on RPMI-8226 leukemia and in the test with NCI-H226 lung was > 25 µM each time.

Take `O=C(CCCn1c2c(sc3ncccc32)c(=O)n2nnc(-c3ccccc3)c12)NCCc1cnc[nH]1`: the GI50 in the test with OVCAR-5 ovarian is 11.6 µM; in the test with OVCAR-3 ovarian it was 11 µM; with NCI-H522 lung, 2.95 µM; in the test on HCT-15 colon, 5.8 µM; with OVCAR-4 ovarian it was 15.4 µM; in the test on A498 renal, 6.84 µM. For the same compound, the GI50 was 13.6 µM in the test on TK-10 renal, 15.3 µM in the test on ACHN renal, 5.15 µM in the test with RPMI-8226 leukemia and 11.7 µM with NCI-H226 lung. Further, the TGI was 32.7 µM with OVCAR-5 ovarian; 23.6 µM in the test with OVCAR-3 ovarian; 23 µM with NCI-H522 lung; > 100 µM with HCT-15 colon; 32.2 µM in the test on OVCAR-4 ovarian; 22.6 µM in the test on A498 renal. Besides, the total growth inhibition concentration (TGI) was found to be 27.9 µM in the test with TK-10 renal, 31 µM in the test on ACHN renal, 35.7 µM with RPMI-8226 leukemia and 29.3 µM in the test with NCI-H226 lung.

The term TGI denotes the concentration giving total growth inhibition. Lower therefore signals more potent growth arrest. One may read the GI50 as the concentration at which growth is held to half of that of the control.
